Test results from article PMC10669340, “Bioactive Compounds from an Endophytic Pezicula sp. Showing Antagonistic Effects against the Ash Dieback Pathogen” (Biomolecules, 2023).
Values after ≈ are worked out from the molar mass of the structure shown. “Also recorded” adds a separate entry of the source. Like-named read-outs stand apart in the source and are kept apart here.

What was measured:
[1] = test system: Acinetobacter baumannii DSM 30008; test: Antimicrobial serial dilution assay (MIC); assay type: cell-based; settings: n.i.: no inhibition
Procedure, shortened: (§1)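 The panel, run by serial dilution under a published method, also covered Mucor hiemalis, Pichia anomala and Rhodotorula glutinis, with activity expressed as MIC.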

Bacillus subtilis DSM 10 = test: Antimicrobial serial dilution assay (MIC); assay type: cell-based; settings: DSM10; Bacillus subtilis DSM 10; n.i.: no inhibition; read-out: Minimum inhibitory concentration (MIC)
Procedure, shortened: as §1

Candida albicans DSM1665 = test: Antimicrobial serial dilution assay (MIC); assay type: cell-based; settings: n.i.: no inhibition, read-out: Minimum inhibitory concentration (MIC)
Procedure, shortened: as §1

[2] = test system: Chromobacterium violaceum DSM 30191; test: Antimicrobial serial dilution assay (MIC); assay type: cell-based; settings: DSM30191, n.i.: no inhibition, read-out: Minimum inhibitory concentration (MIC)
Procedure, shortened: as §1

[3] = test system: Escherichia coli DSM 1116; test: Antimicrobial serial dilution assay (MIC); assay type: cell-based; settings: n.i.: no inhibition
Procedure, shortened: as §1

Mucor hiemalis DSM 2656 = test: Antimicrobial serial dilution assay (MIC); assay type: cell-based; settings: DSM2656; Mucor hiemalis DSM 2656; n.i.: no inhibition; read-out: Minimum inhibitory concentration (MIC)
Procedure, shortened: as §1

[4] = test system: Mycobacterium smegmatis ATCC 700084; test: Antimicrobial serial dilution assay (MIC); assay type: cell-based; settings: Mycolicibacterium smegmatis, ATCC700084; Mycobacterium smegmatis ATCC 700084; n.i.: no inhibition; read-out: Minimum inhibitory concentration (MIC)
Procedure, shortened: as §1

Pichia anomala DSM 6766 = test: Antimicrobial serial dilution assay (MIC); assay type: cell-based; settings: Hansenula anomala, DSM6766; Pichia anomala DSM 6766; n.i.: no inhibition; read-out: Minimum inhibitory concentration (MIC)
Procedure, shortened: as §1

[5] = test system: Pseudomonas aeruginosa PA14; test: Antimicrobial serial dilution assay (MIC); assay type: cell-based; settings: n.i.: no inhibition
Procedure, shortened: as §1

[6] = test system: Rhodotorula glutinis DSM 10134; test: Antimicrobial serial dilution assay (MIC); assay type: cell-based; settings: DSM10134; Rhodotorula glutinis DSM 10134; n.i.: no inhibition; read-out: Minimum inhibitory concentration (MIC)
Procedure, shortened: as §1

[7] = test system: Schizosaccharomyces pombe DSM 70572; test: Antimicrobial serial dilution assay (MIC); assay type: cell-based; settings: DSM70572; Schizosaccharomyces pombe DSM 70572; n.i.: no inhibition; read-out: Minimum inhibitory concentration (MIC)
Procedure, shortened: as §1

[8] = test system: Staphylococcus aureus DSM 346; test: Antimicrobial serial dilution assay (MIC); assay type: cell-based; settings: DSM346; Staphylococcus aureus DSM 346; n.i.: no inhibition; read-out: Minimum inhibitory concentration (MIC)
Procedure, shortened: as §1

MTT cytotoxicity assay = assay type: cell-based; settings: read-out: Cytotoxic activity (IC50)
Experimental: (§2) The in vitro cytotoxicity assay was performed using the MTT (3-(4,5-dimethylthiayol-2-yl)-2,5-diphenyltetrazolium bromide) test in 96-well microtiter plates as previously described.

[9] = test system: H. fraxineus (isolate RH02-T6-B4-2); test: Agar disc diffusion assay; assay type: cell-based, Hymenoscyphus fraxineus; settings: for Antifungal activity, inhibition diameter: 6 mm disc, 7 days, 21 °C
Procedure, shortened: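 Sterile paper discs on potato–dextrose agar inoculated with H. fraxineus in 9 cm dishes; nystatin (20 and 50 µg/disc) as positive and methanol (10 µL/disc) as negative control. Plates held at 21 °C for 7 days, then inhibition zone diameters measured.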

[10] = test system: Fraxineus excelsior leaves; test: Phytotoxicity leaf puncture assay; settings: 1 mg/mL in MeOH, 20 µL on punctured leaves, evaluated after 3 days
Experimental: The phytotoxicity of the compounds 1, 3 and 4 was assessed using the leaf puncture assay as described previously. The other compounds could not be evaluated because of the limited quantity.
For this assay, similar leaves of the same Fraxineus excelsior plant were chosen onto which the compounds were applied. The pure compounds were dissolved at 1 mg/mL in MeOH. Then, 20 µL of test samples were applied to the adaxial sides of leaves that had previously been needle punctured. A total of 20 µL of MeOH in distilled water (4%) was applied on the leaves as the negative control and 1 mg/mL macrocidin A [23] as the positive control. Each treatment was repeated three times and then the leaves were placed on moistened paper filters in petri dishes (diameter 9 cm) to prevent the droplets from drying. The experiment was run in duplicate. Leaves were evaluated for the symptoms after 3 days.

[11] = test system: panel of bacteria and fungi; test: Antimicrobial serial dilution assay, whole panel (summary statements); assay type: cell-based
Experimental: The antimicrobial activity (minimum inhibitory concentration, MIC) of the compounds was determined against Acinetobacter baumannii DSM 30008, Bacillus subtilis DSM 10, Chromobacterium violaceum DSM 30191, Escherichia coli DSM 1116, Mycobacterium smegmatis ATCC 700084, Pseudomonas aeruginosa PA14, Staphylococcus aureus DSM 346, Candida albicans DSM1665, Mucor hiemalis DSM 2656, Pichia anomala DSM 6766, Rhodotorula glutinis DSM 10134 and Schizosaccharomyces pombe DSM 70572 in a serial dilution assay as previously described.

[12] = test system: panel of mammalian cell lines; test: MTT cytotoxicity assay, panel (summary statements); assay type: cell-based; settings: 4–6 only KB3.1 and L929
Experimental: as §2

Micrococcus luteus = test system: Micrococcus luteus; set-up: method as in PMID 24529574; settings: cited from earlier work
[13] = test system: Mycobacterium diernhoferi; set-up: method as in PMID 24529574; settings: cited from earlier work
Nocardia sp. = test system: Nocardia sp.; set-up: method as in PMID 24529574; settings: cited from earlier work
Nocardioides simplex = test system: Nocardioides simplex; set-up: method as in PMID 24529574; settings: cited from earlier work
S. aureus = test system: S. aureus; set-up: method as in PMID 24529574; settings: cited from earlier work
[14] = test system: methicillin-resistant S. aureus (MRSA) strain N315e; set-up: method as in PMID 24529574; settings: cited from earlier work

## CC=C(Cl)C1=CC(=O)C23CC2C(C)(C)OC3(O)C1=O (stereo not shown) [Compound 3, Mycorrhizin A]
[1]
  Minimum inhibitory concentration (MIC): n.i.
Bacillus subtilis DSM 10
  MIC: 66.6 µg/mL (≈ 236 µM)
Candida albicans DSM1665
  MIC: 66.6 µg/mL (≈ 236 µM)
[2]
  MIC: 66.6 µg/mL (≈ 236 µM)
[3]
  Minimum inhibitory concentration (MIC): n.i.
Mucor hiemalis DSM 2656
  MIC: 4.2 µg/mL (≈ 14.9 µM)
[4]
  MIC: 66.6 µg/mL (≈ 236 µM)
Pichia anomala DSM 6766
  MIC: 16.6 µg/mL (≈ 58.7 µM)
[5]
  Minimum inhibitory concentration (MIC): n.i.
[6]
  MIC: 8.3 µg/mL (≈ 29.4 µM)
[7]
  MIC: 33.3 µg/mL (≈ 118 µM)
[8]
  MIC: 66.6 µg/mL (≈ 236 µM)
MTT cytotoxicity assay; human, A431 squamous cell carcinoma cells
  IC50: 1 µM
MTT cytotoxicity assay; human, A549 lung carcinoma cells
  IC50: 22 µM
MTT cytotoxicity assay; human, KB3.1 endocervical adenocarcinoma cells, n.c.: no cytotoxicity
  IC50: 11 µM
MTT cytotoxicity assay; human, MCF-7 breast adenocarcinoma cells
  IC50: 0.64 µM
MTT cytotoxicity assay; human, PC-3 prostate cancer cells
  IC50: 11 µM
MTT cytotoxicity assay; human, SKOV-3 ovarian carcinoma cells
  IC50: 2.4 µM
MTT cytotoxicity assay; mouse, L929 fibroblast cells, n.c.: no cytotoxicity
  IC50: 3.2 µM
[9]; 20 µg/paper disc
  Antifungal activity, inhibition diameter: 19 mm
[9]; 50 µg (1) and 20 µg (3) test substance per paper disc
  inhibitory effects against H. fraxineus (in words): strong inhibitory effects
[9]; 50 µg/paper disc, n.i.: no inhibition
  Antifungal activity, inhibition diameter: 31 mm
[10]
  phytotoxic activity, leaf puncture assay: brownish lesions; also recorded: most phytotoxic effects
[11]
  antimicrobial activity against the tested microorganisms (in words): moderate to weak antifungal activity
[12]
  cytotoxicity against the tested cell lines (in words): active against all the tested cell lines

## C/C=C/[C@@H]1C(C)=C[C@@H]2C[C@H](C)CC[C@H]2[C@]1(C)/C(O)=C1\C(=O)N[C@@H]([C@@H](C)O)C1=O [hymenosetin]
Micrococcus luteus
  MIC: ≤ 1.0 µg/mL
[13]
  MIC: ≤ 1.0 µg/mL
Nocardia sp.
  MIC: ≤ 1.0 µg/mL
Nocardioides simplex
  MIC: ≤ 1.0 µg/mL
S. aureus
  MIC: ≤ 1.0 µg/mL
[14]
  MIC: ≤ 1.0 µg/mL
